Read-outs that look alike come from different tables or passages of the source.

Data set [1] addresses NS5A chimeric genotype 2a JFH-1 replicon with genotype 2b MD2b-1 strain NS5A gene (M31). In words: Renilla luciferase HCV replicon reporter assay, genotype 2b. Type of data set: cell-based. The method, then:
(§1) Evaluation of cell-based anti-HCV activity: Antiviral potency (EC50) was determined using a Renilla luciferase (RLuc)-based HCV replicon reporter assay. To perform the assay for genotype 1 and 2a JFH-1, stable HCV 1a RLuc replicon cells (harboring a dicistronic genotype 1a H77 replicon that encodes a RLuc reporter), stable HCV 1b RLuc replicon cells (harboring a dicistronic genotype 1b Conl replicon that encodes a RLuc reporter), or stable HCV 2a JFH-1 Rluc replicon cells (harboring a dicistronic genotype 2a JFH-1 replicon that encodes a RLuc reporter; with L31 present in NS5A) were dispensed into 384-well plates for EC50 assays. To perform the assay for genotype 2a (with M31 present in NS5A) or 2b, NS5A chimeric genotype 2a JFH-1 replicons that encodes a RLuc-Neo reporter and either genotype 2a J6 strain NS5A gene or genotype 2b MD2b-1 strain NS5A gene (both with M31 present) respectively, were either transiently transfected (t) into Huh-Lunet cells or were established as stably replicating replicon cells (s) is provided. Either cells were dispensed into 384-well plates for EC50 assays. To perform the assay for genotype 3 and 4, NS5A chimeric genotype 1b Conl replicons that encodes a Pi-RLuc reporter and either genotype 3a S52 strain NS5A gene or genotype 4a ED43 strain NS5A gene respectively, were transiently transfected (t) into Huh-Lunet cells, which were subsequently dispensed into 384-well plates. Compounds were dissolved in DMSO at a concentration of 10 mM and diluted in DMSO either manually or using an automated pipeting instrument. Serially 3-fold diluted compounds were either manually mixed with cell culture media and added to the seeded cells or directly added to the cells using an automated instrument. DMSO was used as a negative (solvent; no inhibition) control, and the protease inhibitor ITMN-191 was included at a concentration >100×EC50 as a positive control. 72 hours later, cells were lysed and Renilla luciferase activity quantified as recommended by the manufacturer (Promega-Madison, Wis.). Non-linear regression was performed to calculate EC50 values.

Details of data set [2]: species or system Sprague-Dawley (SD) rats. To be noted: in vivo. The method, then: IV and PO Single Dose Pharmacokinetic Studies in SD Rats: The pharmacokinetics of selected compounds was characterized in male Sprague-Dawley (SD) rats (250-300 g). In this study, two groups of naïve purebred SD rats (N=3 per group, fasted over night) received the selected compound either as an intravenous (IV) infusion (1 mg/kg over 30 minutes) via the jugular vein or by oral gavage (2 mg/kg). The intravenous (IV) dosing vehicle was 5% ethanol, 35% polyethylene glycol 400 (PEG 400) and 60% water pH 2.0. The oral dosing vehicle was 5% ethanol, 55% PEG 400 and 40% citrate buffer pH 2.2.
Serial blood samples (approximately 0.3 mL each) were collected from jugular vein or other suitable vein at specified time points. […]
A bioanalytical method utilizing high performance liquid chromatography coupled to tandem mass spectrometry (LC/MS/MS) was developed for analysis of the selected compound in rat plasma. Detection was performed using selected reaction monitoring (SRM); Ions representing the precursor (M+H) ^+ species was selected in quadrupole 1 (Q1) and collided with argon gas in the collision cell (Q2) to generate specific product ion, which was subsequently monitored by quadrupole 3 (Q3). Standard curve and quality control samples were prepared in male rat plasma and processed in the same way as the test samples to generate quantitative data. […]

The subject of the next data set is 3a Y93H. In words: Replicon assay against resistance mutant 3a Y93H. Type of data set: cell-based, HCV.
For data set [3], the system named is HCV 1b RLuc replicon cells (genotype 1b Conl replicon). In words: Renilla luciferase HCV replicon reporter assay, genotype 1b. Type of data set: cell-based. To be noted: stable replicon cells, 72 hours, RLuc readout. The method, then: as §1
The target in data set [4] is NS5A chimeric genotype 1b Conl replicon with genotype 3a S52 strain NS5A gene. The data set is described as follows: Renilla luciferase HCV replicon reporter assay, genotype 3a. Type of data set: cell-based. The method, then: as §1
(In general: A replicon is a self-replicating genome or part of one, used to study replication in cells.)

The test system of data set [5] is L31V/Y93H in genotype 1b NS5A (1b Pi-Rluc replicon). The data set is described as follows: Replicon assay against resistance mutant 1b L31V/Y93H. Type of data set: cell-based, HCV. To be noted: transiently transfected Huh-7-derived cured-51 cells. The method, then: (§2) Evaluation of cell-based anti-HCV activity: Antiviral potency (EC50) was determined using a Renilla luciferase (RLuc)-based HCV replicon reporter assay. To perform the assay for genotype 1 and 2a JFH-1, stable HCV 1a RLuc replicon cells (harboring a dicistronic genotype 1a H77 replicon that encodes a RLuc reporter), stable HCV 1b RLuc replicon cells (harboring a dicistronic genotype 1b Conl replicon that encodes a RLuc reporter), or stable HCV 2a JFH-1 Rluc replicon cells (harboring a dicistronic genotype 2a JFH-1 replicon that encodes a RLuc reporter; with L31 present in NS5A) were dispensed into 384-well plates for EC50 assays. […] 72 hours later, cells were lysed and Renilla luciferase activity quantified as recommended by the manufacturer (Promega-Madison, Wis.). […]
(§3) To determine the antiviral potency (EC50) against resistance mutants, resistance mutations, including Q30R, Q30E, Y93H, and Y93N in genotype 1a NS5A, and L31V/Y93H in genotype 1b NS5A were introduced individually into either 1a Pi-Rluc or 1b Pi-Rluc replicons by site directed mutagenesis. Replicon RNA of each resistant mutant was transiently transfected into Huh-7-derived cured-51 cells and antiviral potency was determined on these transfected cells as described above.

Data set [6] has as its target NS5A chimeric genotype 2a JFH-1 replicon with genotype 2a J6 strain NS5A gene (M31). The data set is described as follows: Renilla luciferase HCV replicon reporter assay, genotype 2a J6. Type of data set: cell-based. To be noted: transiently transfected (t) into Huh-Lunet cells, 72 hours. The method, then: as §2, with “assays. To perform the assay for genotype 2a (with M31 present in NS5A) or 2b, NS5A chimeric genotype 2a JFH-1 replicons that encodes a RLuc-Neo reporter and either genotype 2a J6 strain NS5A gene or genotype 2b MD2b-1 strain NS5A gene (both with M31 present) respectively, were either transiently transfected (t) into Huh-Lunet cells or were established as stably replicating replicon cells (s) is provided. Either cells were dispensed into 384-well plates for EC50 assays.” for “assays.”

For data set [7], the system named is Q30E in genotype 1a NS5A (1a Pi-Rluc replicon). In words: Replicon assay against resistance mutant 1a Q30E. Type of data set: cell-based, HCV. To be noted: transiently transfected Huh-7-derived cured-51 cells. As to the method: as §2, §3
Data set [8] concerns Y93H in genotype 1a NS5A (1a Pi-Rluc replicon). The data set is described as follows: Replicon assay against resistance mutant 1a Y93H. Type of data set: cell-based, HCV. The method, then:
as §1, with “Compounds were dissolved in DMSO at a concentration of 10 mM and diluted in DMSO either manually or using an automated pipeting instrument. Serially 3-fold diluted compounds were either manually mixed with cell culture media and added to the seeded cells or directly added to the cells using an automated instrument. DMSO was used as a negative (solvent; no inhibition) control, and the protease inhibitor ITMN-191 was included at a concentration >100×EC50 as a positive control.” left out, “Non-linear regression was performed to calculate EC50 values.” left out
as §3

The subject of data set [9] is HCV 1a RLuc replicon cells (genotype 1a H77 replicon). In words: Renilla luciferase HCV replicon reporter assay, genotype 1a. Type of data set: cell-based. To be noted: stable replicon cells, 72 hours, RLuc readout. The method, then: as §1
The test system of data set [10] is HCV 2a JFH-1 Rluc replicon cells (L31 present in NS5A). The data set is described as follows: Renilla luciferase HCV replicon reporter assay, genotype 2a JFH-1. Type of data set: cell-based. To be noted: stable replicon cells, 72 hours. The method, then:
as §1

In data set [11] the test system is Y93N in genotype 1a NS5A (1a Pi-Rluc replicon). The data set is described as follows: Replicon assay against resistance mutant 1a Y93N. Type of data set: cell-based, HCV. The method, then: as §1, with “Compounds were dissolved in DMSO at a concentration of 10 mM and diluted in DMSO either manually or using an automated pipeting instrument. Serially 3-fold diluted compounds were either manually mixed with cell culture media and added to the seeded cells or directly added to the cells using an automated instrument. DMSO was used as a negative (solvent; no inhibition) control, and the protease inhibitor ITMN-191 was included at a concentration >100×EC50 as a positive control.” left out, “Non-linear regression was performed to calculate EC50 values.” left out
as §3

The subject of data set [12] is NS5A chimeric genotype 1b Conl replicon with genotype 4a ED43 strain NS5A gene. The data set is described as follows: Renilla luciferase HCV replicon reporter assay, genotype 4a. Type of data set: cell-based. To be noted: Hepatitis C virus, 72 h, read-out: 4a (s) (nM). The method, then:
as §2, with “assays. To perform the assay for genotype 2a (with M31 present in NS5A) or 2b, NS5A chimeric genotype 2a JFH-1 replicons that encodes a RLuc-Neo reporter and either genotype 2a J6 strain NS5A gene or genotype 2b MD2b-1 strain NS5A gene (both with M31 present) respectively, were either transiently transfected (t) into Huh-Lunet cells or were established as stably replicating replicon cells (s) is provided. Either cells were dispensed into 384-well plates for EC50 assays.” for “assays.”

Setting [13] is: Hepatitis C virus, 72 h, read-out: 2b (s) (nM).
The mark [14] stands for this setting: Hepatitis C virus, read-out: 3a Y93H (nM).
Where [15] appears, read: Hepatitis C virus, 72 h, read-out: 3a (nM).
[16] abbreviates: Hepatitis C virus, read-out: 1a Y93H (nM).
Where [17] appears, read: Hepatitis C virus, read-out: 1a Y93N (nM).

In the case of `COC(=O)N[C@H](C(=O)N1[C@@H](C)CC[C@H]1c1ncc(-c2cc3c4c(c2)OCc2cc(-c5cnc([C@@H]6CC[C@H](C)N6C(=O)[C@@H](NC(=O)OC)C6C[C@@H](C)O[C@H](C)C6)[nH]5)cc(c2-4)OC3)[nH]1)C1C[C@@H](C)O[C@H](C)C1` (stereo partly drawn) [Compound 14, dimethyl (R,R,1S,1′S)-2,2′-((2S,2′S,5S,5′S)-5,5′-(5,5′-(5,10-dihydrochromeno[5,4,3-cde]chromene-2,7-diyl)bis(1H-imidazole-5,2-diyl))bis(2-methylpyrrolidine-5,1-diyl))bis(1-((2R,6R)-2,6-dimethyltetrahydro-2H-pyran-4-yl)-2-oxoethane-2,1-diyl)dicarbamate], the EC50 is 0.038 nM in [1] (transiently transfected (t) into Huh-Lunet cells, 72 hours, read-out: 2b (t)); 0.157 nM in the data set on 3a Y93H (resistance mutant replicon, read-out: 3a Y93H); 0.054 nM in data set [3]; 0.04 nM in data set [4] (transiently transfected into Huh-Lunet cells, 72 hours, read-out: 3a); 0.075 nM in data set [5]; 0.014 nM in data set [6]. In addition, the EC50 in [7] came out at 0.11 nM; in data set [8] (transiently transfected Huh-7-derived cured-51 cells, read-out: 1a Y93H), 0.063 nM; in data set [9], 0.049 nM; in [10], 0.011 nM; in [11] (transiently transfected Huh-7-derived cured-51 cells, read-out: 1a Y93N), 0.229 nM. The “Rat % F” value in data set [2] stood at 15%.

With `COC(=O)N[C@H](C(=O)N1CCC[C@H]1c1ncc(-c2cc3c4c(c2)OCc2cc(-c5cnc([C@@H]6CCCN6C(=O)[C@@H](NC(=O)OC)C6C[C@@H](C)O[C@H](C)C6)[nH]5)cc(c2-4)OC3)[nH]1)C1C[C@@H](C)O[C@H](C)C1` (stereo partly drawn) [Compound 15, dimethyl ((1S,1′S)-((2S,2′S)-((5,10-dihydrochromeno [5,4,3-cde]chromene-2,7-diyl)bis(1H-imidazole-5,2-diyl))bis(pyrrolidine-2,1-diyl))bis(1-((2R,6R)-2,6-dimethyltetrahydro-2H-pyran-4-yl)-2-oxoethane-2,1-diyl))dicarbamate], the EC50 came to 0.143 nM in data set [1] (setting [13]); 0.361 nM in the data set with 3a Y93H (setting [14]); 0.195 nM in [3] (Hepatitis C virus); 0.199 nM in data set [4] (setting [15]); 0.237 nM in data set [8] (setting [16]); 0.18 nM in data set [9] (Hepatitis C virus). The EC50 is 0.07 nM in data set [12], 0.024 nM in [10] (Hepatitis C virus) and 0.87 nM in [11] (setting [17]).

In the case of `COC(=O)N[C@H](C(=O)N1[C@@H](C)CC[C@H]1c1ncc(-c2cc3c4c(c2)OCc2cc(-c5cnc([C@@H]6CC[C@H](C)N6C(=O)[C@@H](NC(=O)OC)[C@H]6C[C@@H](C)O[C@@H](C)C6)[nH]5)cc(c2-4)OC3)[nH]1)C1C[C@@H](C)O[C@@H](C)C1` (stereo partly drawn) [Compound 16, dimethyl (r,S,R,1S,1′S)-2,2′-((2S,2′S,5S,5′S)-5,5′-(5,5′-(5,10-dihydrochromeno[5,4,3-cde]chromene-2,7-diyl)bis(1H-imidazole-5,2-diyl))bis(2-methylpyrrolidine-5,1-diyl))bis(1-((2R,4r,6S)-2,6-dimethyltetrahydro-2H-pyran-4-yl)-2-oxoethane-2,1-diyl)dicarbamate], the EC50 was determined as 0.054 nM in data set [1] (setting [13]); 0.145 nM with 3a Y93H (setting [14]); 0.037 nM in [3] (Hepatitis C virus); 0.051 nM in data set [4] (setting [15]); 0.356 nM in [8] (setting [16]); 0.043 nM in [9] (Hepatitis C virus). The EC50 worked out at 0.025 nM in data set [12], 0.013 nM in [10] (Hepatitis C virus) and 0.685 nM in [11] (setting [17]).
